According to ChEMBL document CHEMBL1201862, “PubChem BioAssay data set” (2004):
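Dose response: 5 concentrations. Exposure: 48 h. Format: 96-well plates. Endpoint: linear interpolation; highest concentration if not reached. Here, GI50 denotes the concentration required for 50% inhibition of growth.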 Calls of active or inactive are those of the source. Rule as the data show it: active = GI50 up to about 1.1 µM and inactive = higher.

Legend:
Experiment in all cases: growth of human tumour cells (NCI), 48 h
786-0 = test system: 786-0
OVCAR-3 = test system: OVCAR-3
PC-3 = test system: PC-3
SNB-75 = test system: SNB-75
HOP-92 = test system: HOP-92
HT-29 = test system: HT-29
SR = test system: SR
ACHN = test system: ACHN
CCRF-CEM = test system: CCRF-CEM
OVCAR-5 = test system: OVCAR-5
M14 = test system: M14
MCF7 = test system: MCF7
A549 = test system: A549
SF-295 = test system: SF-295
NCI-H460 = test system: NCI-H460
CAKI-1 = test system: CAKI-1
HL-60 = test system: HL-60
UO-31 = test system: UO-31
DU-145 = test system: DU-145
SK-MEL-5 = test system: SK-MEL-5
HOP-62 = test system: HOP-62
MDA-MB-231 = test system: MDA-MB-231
SK-OV-3 = test system: SK-OV-3
SF-268 = test system: SF-268
Hs-578T = test system: Hs-578T
NCI/ADR-RES = test system: NCI/ADR-RES
SK-MEL-2 = test system: SK-MEL-2
K562 = test system: K562
A498 = test system: A498
TK-10 = test system: TK-10
SN12C = test system: SN12C
HCT-15 = test system: HCT-15
NCI-H23 = test system: NCI-H23
BT-549 = test system: BT-549
MDA-MB-435 = test system: MDA-MB-435
IGROV-1 = test system: IGROV-1
KM12 = test system: KM12
Malme-3M = test system: Malme-3M
UACC-257 = test system: UACC-257
HCC 2998 = test system: HCC 2998
EKVX = test system: EKVX
SNB-19 = test system: SNB-19
T47D = test system: T47D
OVCAR-4 = test system: OVCAR-4
COLO 205 = test system: COLO 205
SW-620 = test system: SW-620
NCI-H522 = test system: NCI-H522
U-251 = test system: U-251
RPMI-8226 = test system: RPMI-8226
SK-MEL-28 = test system: SK-MEL-28
RXF 393 = test system: RXF 393
OVCAR-8 = test system: OVCAR-8
NCI-H226 = test system: NCI-H226
UACC-62 = test system: UACC-62
LOX IMVI = test system: LOX IMVI
HCT-116 = test system: HCT-116
MOLT-4 = test system: MOLT-4

Q: Which results are given for `COc1ccc(N2C(=O)C3c4[nH]c5ccc(C)cc5c4C4CCC(c5ccccc5)CC4C3C2=O)cc1` (configuration not stated)?
A: GI50 (786-0): 9.64 µM (inactive); GI50 (OVCAR-3): > 100 µM (inactive); GI50 (PC-3): > 100 µM (inactive); GI50 (SNB-75): 4.02 µM (inactive); GI50 (HOP-92): 14.6 µM (inactive); GI50 (HT-29): > 100 µM (inactive); GI50 (SR): 5.41 µM (inactive); GI50 (ACHN): 32.6 µM (inactive); GI50 (CCRF-CEM): 4.9 µM (inactive); GI50 (OVCAR-5): > 100 µM (inactive); GI50 (M14): 47.1 µM (inactive); GI50 (MCF7): > 83.6 µM (inactive); GI50 (A549): > 89.1 µM (inactive); GI50 (SF-295): 20.6 µM (inactive); GI50 (NCI-H460): 39 µM (inactive); GI50 (CAKI-1): > 33.1 µM (inactive); GI50 (HL-60): 12.8 µM (inactive); GI50 (UO-31): > 89.5 µM (inactive); GI50 (DU-145): > 100 µM (inactive); GI50 (SK-MEL-5): > 100 µM (inactive); GI50 (HOP-62): 7.05 µM (inactive); GI50 (MDA-MB-231): 8.41 µM (inactive); GI50 (SK-OV-3): 18.9 µM (inactive); GI50 (SF-268): 11.8 µM (inactive); GI50 (Hs-578T): 6.84 µM (inactive); GI50 (NCI/ADR-RES): > 100 µM (inactive); GI50 (SK-MEL-2): 28.5 µM (inactive); GI50 (K562): 25.8 µM (inactive); GI50 (A498): 22.9 µM (inactive); GI50 (TK-10): 28.6 µM (inactive); GI50 (SN12C): > 100 µM (inactive); GI50 (HCT-15): > 75.9 µM; GI50 (NCI-H23): 33.7 µM (inactive); GI50 (BT-549): 42.3 µM (inactive); GI50 (MDA-MB-435): > 100 µM (inactive); GI50 (IGROV-1): > 51.3 µM (inactive); GI50 (KM12): > 100 µM (inactive); GI50 (Malme-3M): > 100 µM (inactive); GI50 (UACC-257): > 100 µM (inactive); GI50 (HCC 2998): > 100 µM (inactive); GI50 (EKVX): > 64.3 µM (inactive); GI50 (SNB-19): 14.3 µM (inactive); GI50 (T47D): > 100 µM (inactive); GI50 (OVCAR-4): > 32.5 µM (inactive); GI50 (COLO 205): > 100 µM (inactive); GI50 (SW-620): > 100 µM (inactive); GI50 (NCI-H522): > 100 µM (inactive); GI50 (U-251): 12.9 µM (inactive); GI50 (RPMI-8226): > 82.8 µM (inactive); GI50 (SK-MEL-28): > 100 µM (inactive); GI50 (RXF 393): 12.6 µM (inactive); GI50 (OVCAR-8): 22.5 µM (inactive); GI50 (NCI-H226): > 100 µM (inactive); GI50 (UACC-62): 22.6 µM (inactive); GI50 (LOX IMVI): > 57.3 µM (inactive); GI50 (HCT-116): > 57.7 µM (inactive); GI50 (MOLT-4): 41.2 µM (inactive)
